“And” between values parts separate entries of the source, which are not always exact repeats. Equal entries are not always repeated. Structures can show the parent of a compound that is named as a salt.

Series [1] is described as follows: DPPH radical scavenging activity. The class given is biochemical. The conditions noted are these: 100 µM DPPH in methanol, 20 min, A517nm; IC50 from linear equation of 20, 50 and 100 µM; read-out: IC50 of DPPH radical scavenging activities. As to the method:
The 60 µL of different concentrations of samples (10, 20, 50, 100, 150, and 200 µM diluted with DMSO) were added into a 96-well plate, and then 140 µl of 100 µM DPPH in methanol was added under light protection for 20 min. The changes of absorbance at A517nm were measured, and DMSO was used instead of a sample solution in the control group. The scavenging activity of the DPPH radical (%) was calculated with the following equation: (Control-sample)/control ×100%.

The next series addresses T1, Aβ1-42 peptide (Homo sapiens, UniProt P05067).
T1 construct: The preparation of Aβ1–42 peptide stock solution was following the previous report; purchased Sigma Chemical Co. (St. Louis, MO)
The series can be described thus: Anti-Aβ1-42 peptide aggregation, thioflavin T binding assay. Format: biochemical. The conditions noted are these: 10 µM Aβ1-42, 10 µM ThT, 37 °C, 24 h; read-out: IC50 of anti-Aβ1-42 peptide aggregations. As for the experimental part: The DMSO was used instead of the sample solution as the control. […] The inhibition against Aβ aggregation (%) was calculated as [(Econtrol,24−h-Econtrol,0−h)- (Esample,24−h-Esample,0−h)/(Econtrol,24 h-Econtrol,0−h)] ×100%.

In the next series the target is T2, recombinant human AChE (Homo sapiens, UniProt P22303).
T2 construct: purchased R&D Systems Inc. (Minneapolis, MN)
T2 sequence (P22303 32-614): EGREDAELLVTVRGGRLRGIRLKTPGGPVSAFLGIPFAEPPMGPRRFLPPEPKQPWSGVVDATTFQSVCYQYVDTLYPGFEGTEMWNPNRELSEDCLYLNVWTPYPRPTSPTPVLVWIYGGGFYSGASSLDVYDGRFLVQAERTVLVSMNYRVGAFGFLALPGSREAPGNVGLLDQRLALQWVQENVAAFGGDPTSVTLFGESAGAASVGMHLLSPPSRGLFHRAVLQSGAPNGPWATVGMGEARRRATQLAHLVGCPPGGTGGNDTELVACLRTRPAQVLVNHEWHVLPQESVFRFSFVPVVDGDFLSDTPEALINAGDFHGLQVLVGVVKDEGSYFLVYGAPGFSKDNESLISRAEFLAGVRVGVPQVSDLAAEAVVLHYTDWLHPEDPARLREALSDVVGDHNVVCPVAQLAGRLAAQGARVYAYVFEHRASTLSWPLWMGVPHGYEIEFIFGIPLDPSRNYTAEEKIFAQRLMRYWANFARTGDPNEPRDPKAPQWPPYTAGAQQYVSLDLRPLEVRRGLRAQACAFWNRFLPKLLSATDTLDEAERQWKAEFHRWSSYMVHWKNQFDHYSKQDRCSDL
The series can be described thus: biochemical. The conditions noted are these: pH 7.5, tested at 125 to 1000 µM, read-out: AChE inhibitory activity IC50. As to the method:
The AChE substrates of acetylthiocholine iodide was added for another 15 min, and the DTNB coupling reagents was added and the mixture was recorded at 405 nm for 10 min. The DMSO instead of sample solution was used as the blank. AChE inhibition (%) was calculated by [(A405blank-A405sample)/(A405blank)] ×100%.

A further series relates to PC12 cells. The series can be described thus: Neurite outgrowths in PC12 pheochromocytoma cells. The class given is cell-based, rat. The conditions noted are these: 3-day treatment, blank 3.62 ± 1.62 μm. As to the method:
The PC12 cells (5 × 10^3/well) were seeded in poly-L-lysine coated 96-well plate and cultured in RPMI-640 medium supplemented with 10% horse serum, 5% FBS, 100 U/ml penicillin and 100 mg/l streptomycin for 24 h at 37 °C under the humidified atmosphere and 5% CO2. […] The DMSO was used instead of the sample solution as the blank. After an interval of 3 days, the cell morphologies were photographed using an inverted microscope (200-fold magnifications, ECLIPSE TS100, Nikon Instruments Inc., Tokyo, Japan).

Series [2] has as its system scopolamine-induced ICR mice. The experiment in a line: Passive avoidance test in scopolamine-induced cognitive dysfunction ICR mice. Format: in vivo. The conditions noted are these: scopolamine 1 mg/kg i.p., P < 0.05.
From the text: The 5-week-old (N = 30) male ICR mice were purchased from the Laboratory Animal Center in College of Medicine, National Taiwan University, and were housed in wire-bottomed stainless-steel cages and had free access to normal feeds (Prolab^Ⓡ RMH2500, MO) and water, which these cages were placed in an environmental controlled space under a 12-h light/dark cycle. After at least one-week acclimation, the mice were randomly divided into six groups, including the blank, the control, the positive control (donepezil-intervened), and the sample pre-treated groups (No.1, No.6, and No.7 groups). […] For mice in the blank, the control, and the positive control, mice were orally received the same volume of distilled water once daily for 10 days in the parallel experiments. In the second stage of animal experiments during day 11 to day 15, mice in the blank, the control, and the sample groups were treated as reported in the first stage, and mice in the positive control group were treated with donepezil (5 mg/kg) orally once a day by gavage feeding, and 30 min later, mice in the control, sample groups, and positive control were injected intraperitoneally with scopolamine (1 mg/kg, dissolved in PBS), and mice in the blank were injected with the same volume of PBS. At day 13 to day 15, after being injected with scopolamine or the same volume of PBS for 30 min, mice in each group were evaluated learning behaviours by the passive avoidance test. The passive avoidance apparatus, a computerized chamber (PACS-30, Columbus Instruments Inc., Columbus, OH) separated by a sliding guillotine door, is composed of a LED light box and a dark box. At the first day of the acquisition trial (day 13), the guillotine door was opened and each mouse was placed in the LED light box. In case the mouse entered the dark box, the automatic and computerized sliding guillotine door was closed, the entered mouse in the dark box received an electric foot shock (0.3 mA for 3 s) delivered via the wired metal floor and then sent back to the cage. The staying time in the light box (the step-through latency, sec) was recorded. The protocol in the second day (day 14) was the same as the first day. If the mouse stayed in the light box longer than 300 s, and the mouse was expelled into light box and received the same electric foot shocks. At the third day (day 15) of the retention trial, each mouse was placed again in the light box, and the staying time in the light box was recorded. The maximum time was 300 s.
The test system of series [3] is RAW264.7 macrophages. The experiment in a line: Anti-nitric oxide productions in lipopolysaccharide-treated RAW264.7 macrophages (Griess). The conditions noted are these: 2.5 µM, 24 h pre-treatment, then LPS 500 ng/ml 24 h. Format: cell-based. As to the method:
(§1) The 5 × 10^4 macrophages/well were seeded in the 96-well plate and cultured for 24 h at 37 °C under the humidified atmosphere and 5% CO2. The cells were pre-treated with hispolon (No.1, 2.5, 5, 10, and 20 µM), No.2, No.3, No.4, and No.5 (5, 10, and 20 µM), and No.6 and No.7 (5, 10, 20, and 40 µM) for 24 h. The LPS (500 ng/ml) was then added to the pre-treated RAW264.7 macrophages for another 24 h for nitric oxide productions. For nitric oxide productions in LPS-treated RAW264.7 macrophages, the culture supernatant (100 µl) was mixed with 100 µl of Griess reagent at room temperature for 30 min. The absorbance at 550 nm was measured and expressed as relative nitric oxide productions (the control was recognized as 100%). […] The sample pretreated-RAW264.7 cells were stained with MTT solution (500 µg/mL), which the formazan was dissolved by 200 µL DMSO, and the absorbance at 570 nm was measured, and was expressed relative to the blank (%).

For series [4], the system named is RAW264.7 macrophages. The experiment in a line: Cell viability of RAW264.7 macrophages (MTT). As to the method: as §1
For series [5], the system named is SH-SY5Y neuroblastoma cells. The series can be described thus: Neuroprotective activity in methylglyoxal-treated SH-SY5Y neuronal cells (MTT, morphology). Format: cell-based. The note with it: for cell viabilities of methylglyoxal-treated SH-SY5Y cells compared to the control: 24 h pre-treatment, then 500 µM methylglyoxal 24 h, MTT; for morphologies of methylglyoxal-treated SH-SY5Y cells: 10 µM, 500 µM methylglyoxal, photographs, 200-fold. As to the method: The SH-SY5Y cells (1 × 10^4 cells/well) were seeded onto a 96-well microplate and cultured in a DMEM/F-12 medium containing 10% FBS for 24 h at 37 °C under a humidified atmosphere and 5% CO2. The cultural medium was removed, and the different concentrations of hispolon (No.1), No.6, and No.7 or 0.1% DMSO (the control and the blank) were added and incubated at 37 °C in a humidified atmosphere with 5% CO2 for 24 h. The treated medium was removed, washed with PBS, and 500 µM MGO in PBS were added to the medium for another 24 h culture. The equal aliquot of PBS was added in the blank.

A further series deals with soluble Aβ protofibrils. The conditions noted are these: intravenously every 2 weeks, 10 mg/kg of body weight, 18 months; ref van Dyck et al. [2023]; cited from earlier work.
[6] abbreviates: 40 mg/kg orally once daily, 10-day pre-treatment and days 11-15.

T1 sequence (P05067 672-713): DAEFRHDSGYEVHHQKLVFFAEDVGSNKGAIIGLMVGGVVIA

Consider `CC(=O)CC(=O)/C=C/c1ccc(O)c(O)c1` [No.1, Hispolon], for which the IC50 amounted to 32.3 µM in series [1], 1.41 µM on Aβ1-42 peptide and 828 µM on recombinant human AChE. Besides, the figures for the “average neurite lengths of PC12 cells” value in the series with PC12 cells (1 µM) and in the series with PC12 cells (2 µM) were 8.02 ± 3.14 μm and 8.49 ± 3.61 μm, respectively. Also, the “step-through latency in the retention trial (day 15) compared to the control” value (from here on “step-through latency … compared to the control”) in series [2] (setting [6]) is “prolong the staying time in the light box”. The “relative nitric oxide productions (control = 100%)” value with RAW264.7 macrophages [3] amounted to 70%. In addition, the “cytotoxicity toward RAW264.7 macrophages” value in the series with RAW264.7 macrophages [4] (2.5 µM) is “no apparent toxicities”; in the series on RAW264.7 macrophages [4] (5, 10 and 20 µM) it was “showed cytotoxicities toward RAW264.7 macrophages”. Moreover, the “cell viabilities of methylglyoxal-treated SH-SY5Y cells compared to the control” value (“cell viabilities … compared to the control” below) in series [5] (5 and 10 µM) is listed as “no significant difference was found compared to those in the control”.

In the case of `COc1c(O)ccc(/C=C/C(=O)CC(C)=O)c1O` [No.7, 2-hydroxy hispolon monomethyl ether], the half-inhibitory concentration (IC50) in series [1] is 37.3 µM; on Aβ1-42 peptide it was 0.95 µM and 0.953 µM; at recombinant human AChE, above 1000 µM. Also, the results for the “average neurite lengths of PC12 cells” value in the series with PC12 cells (1 µM) and with PC12 cells (2 µM) were 5.40 ± 1.96 μm and 8.05 ± 4.69 μm, respectively. Also, the “step-through latency … compared to the control” value in [2] (setting [6]) was “prolong the staying time in the light box”. Besides, the “morphologies of methylglyoxal-treated SH-SY5Y cells” value in series [5] was “recover parts of methylglyoxal-damaged neuritic lengths and restore pyramidal shapes”. In addition, the “cell viabilities … compared to the control” value in series [5] (1, 2, 5 and 10 µM) is “had significant differences compared to those in the control”.

Take `COc1cc(/C=C/C(=O)CC(C)=O)cc(O)c1O` [No.3, 5-methoxyhispolon]: the half-maximal inhibitory concentration (IC50) in series [1] is 21 µM; at Aβ1-42 peptide it was 0.35 µM and 0.354 µM; at recombinant human AChE, above 1000 µM.

For `COc1cc2c(cc1OC)C(=O)C(CC1CCN(Cc3ccccc3)CC1)C2` (centres unmarked) [donepezil, donepezil hydrochloride, reference compound], the “step-through latency … compared to the control” value in [2] (5 mg/kg orally once a day, days 11-15, positive control) was “prolong the staying time in the light box”.

As for NGF, the “average neurite lengths of PC12 cells” value with PC12 cells (100 ng/ml, positive control) worked out at 9.18 ± 4.87 μm.

Take `CC(=O)CC(=O)/C=C/c1cc(O)c(O)c(O)c1` [No.2, 5-hydroxy hispolon]: the IC50 is 28.3 µM in [1]; 0.34 µM and 0.335 µM at Aβ1-42 peptide; above 1000 µM on recombinant human AChE.

Turning to `COc1cc(/C=C/C(=O)CC(C)=O)cc(OC)c1OC` [No.5, 5-methoxyhispolon dimethyl ether], the half-inhibitory concentration (IC50) in series [1] was above 100 µM; on Aβ1-42 peptide, above 20 µM; at recombinant human AChE it was above 1000 µM.

With `COc1cc(/C=C/C(=O)CC(C)=O)cc(OC)c1O` [No.4, 5-methoxyhispolon monomethyl ether], the figures for the IC50 (in series [1]; at Aβ1-42 peptide; at recombinant human AChE) were 79.4 µM, 12.4 µM and above 1000 µM, respectively.

Turning to `CC(=O)CC(=O)/C=C/c1ccc(O)c(O)c1O` [No.6, 2-hydroxy hispolon], the IC50 stood at 38.2 µM in [1], 1.03 µM on Aβ1-42 peptide and 286 µM on recombinant human AChE. Moreover, the “average neurite lengths of PC12 cells” value is 8.50 ± 3.48 μm with PC12 cells (1 µM) and 7.01 ± 3.11 μm with PC12 cells (2 µM). Further, the “step-through latency … compared to the control” value in series [2] (setting [6]) is “prolong the staying time in the light box”. In addition, the “morphologies of methylglyoxal-treated SH-SY5Y cells” value in series [5] is “recover parts of methylglyoxal-damaged neuritic lengths and restore pyramidal shapes”. In series [5] (1, 2, 5 and 10 µM), the “cell viabilities … compared to the control” value is listed as “had significant differences compared to those in the control”.

B1: lecanemab (antibody, chains of the INN, looked up, V domains shown)
VH: EVQLVESGGGLVQPGGSLRLSCSASGFTFSSFGMHWVRQAPGKGLEWVAYISSGSSTIYYGDTVKGRFTISRDNAKNSLFLQMSSLRAEDTAVYYCAREGGYYYGRSYYTMDYWGQGTTVTVSS
VL: DVVMTQSPLSLPVTPGAPASISCRSSQSIVHSNGNTYLEWYLQKPGQSPKLLIYKVSNRFSGVPDRFSGSGSGTDFTLRISRVEAEDVGIYYCFQGSHVPPTFGPGTKLEIK
As to B1, the “less cognitive decline in CDR-SB change between baseline and last visit compared to placebo” value with soluble Aβ protofibrils is given as 27%.

Values taken from publication PMC11655744, “Antioxidant, anti-acetylcholinesterase, and anti-amyloid-β peptide aggregations of hispolon and its analogs in vitro and improved learning and memory functions in scopolamine-induced ICR mice” (Botanical Studies, 2024).
